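Values below derive from 48-hour exposures of cells grown in 96-well plates, with endpoints linearly interpolated between the two concentrations bracketing the appropriate inhibition level. GI50 marks 50% less growth.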 The source made the active and inactive calls. No stated cut-off is given here; in the data, active = GI50 up to about 1.1 µM and inactive = higher.
Columns and labels:
Assay in all cases: inhibition of tumour cell growth, NCI panel, 48 h
[1] = system: SW-620
[2] = system: CCRF-CEM
[3] = system: CAKI-1
[4] = system: NCI-H460
[5] = system: HOP-92
[6] = system: SN12C
[7] = system: HL-60
[8] = system: UO-31
[9] = system: PC-3
[10] = system: A498
[11] = system: MCF7
[12] = system: IGROV-1
[13] = system: MDA-MB-231
[14] = system: SK-MEL-28
[15] = system: UACC-62
[16] = system: M14
[17] = system: RXF 393
[18] = system: MOLT-4
[19] = system: SK-MEL-2
[20] = system: OVCAR-3
[21] = system: SF-295
[22] = system: SNB-19
[23] = system: SK-OV-3
[24] = system: K562
[25] = system: Hs-578T
[26] = system: SF-268
[27] = system: U-251
[28] = system: 786-0
[29] = system: SR
[30] = system: HCC 2998
[31] = system: NCI-H226
[32] = system: NCI-H522
[33] = system: UACC-257
[34] = system: HT-29
[35] = system: NCI/ADR-RES
[36] = system: OVCAR-5
[37] = system: DU-145
[38] = system: HCT-116
[39] = system: T47D
[40] = system: HCT-15
[41] = system: SK-MEL-5
[42] = system: BT-549
[43] = system: LOX IMVI
[44] = system: SNB-75
[45] = system: OVCAR-8
[46] = system: HOP-62
[47] = system: TK-10
[48] = system: SF-539
[49] = system: OVCAR-4
[50] = system: Malme-3M
[51] = system: MDA-MB-435
[52] = system: ACHN
[53] = system: KM12
[54] = system: MDA-N
[55] = system: COLO 205
[56] = system: NCI-H23
[57] = system: A549
[58] = system: RPMI-8226
[59] = system: EKVX

## O=C1CSC(c2ccccc2O)N1c1ccc(-n2c(-c3ccccc3)nc3ccccc3c2=O)cc1 (centres undefined)
[1]
  GI50: 29.7 µM (inactive)
[2]
  GI50: 14.7 µM (inactive)
[3]
  GI50: 29.2 µM (inactive)
[4]
  GI50: 14.8 µM (inactive)
[5]
  GI50: 20.8 µM (inactive)
[6]
  GI50: 30.3 µM (inactive)
[7]
  GI50: 21.6 µM (inactive)
[8]
  GI50: 18.9 µM (inactive)
[9]
  GI50: 12.9 µM (inactive)
[10]
  GI50: 29.7 µM (inactive)
[11]
  GI50: 28.1 µM (inactive)
[12]
  GI50: 25.5 µM (inactive)
[13]
  GI50: 4.76 µM (inactive)
[14]
  GI50: 28.4 µM (inactive)
[15]
  GI50: 21.5 µM (inactive)
[16]
  GI50: 33.7 µM (inactive)
[17]
  GI50: 42.7 µM (inactive)
[18]
  GI50: 13.2 µM (inactive)
[19]
  GI50: 24.3 µM (inactive)
[20]
  GI50: 14.6 µM (inactive)
[21]
  GI50: 16.4 µM (inactive)
[22]
  GI50: 27.3 µM (inactive)
[23]
  GI50: 23.7 µM (inactive)
[24]
  GI50: 15.2 µM (inactive)
[25]
  GI50: 23.4 µM (inactive)
[26]
  GI50: 50.1 µM (inactive)
[27]
  GI50: 5.7 µM (inactive)
[28]
  GI50: 20.1 µM (inactive)
[29]
  GI50: 21.4 µM (inactive)
[30]
  GI50: 28.5 µM (inactive)
[31]
  GI50: 25 µM (inactive)
[32]
  GI50: 19.9 µM (inactive)
[33]
  GI50: 26.7 µM (inactive)
[34]
  GI50: 27.1 µM (inactive)
[35]
  GI50: 21 µM (inactive)
[36]
  GI50: 30.8 µM (inactive)
[37]
  GI50: 29.2 µM (inactive)
[38]
  GI50: 11 µM (inactive)
[39]
  GI50: 14.9 µM (inactive)
[40]
  GI50: 6.84 µM
[41]
  GI50: 16.1 µM (inactive)
[42]
  GI50: 21.6 µM (inactive)
[43]
  GI50: 13.1 µM (inactive)
[44]
  GI50: 54.1 µM (inactive)
[45]
  GI50: 24.3 µM (inactive)
[46]
  GI50: 20.6 µM (inactive)
[47]
  GI50: 48.2 µM (inactive)
[48]
  GI50: 16.6 µM (inactive)
[49]
  GI50: 30.4 µM (inactive)
[50]
  GI50: 22.2 µM (inactive)
[51]
  GI50: 24.4 µM (inactive)
[52]
  GI50: 19.7 µM (inactive)
[53]
  GI50: 20.9 µM (inactive)
[54]
  GI50: 28.2 µM (inactive)
[55]
  GI50: 30.3 µM (inactive)
[56]
  GI50: 31.6 µM (inactive)
[57]
  GI50: 38.4 µM (inactive)
[58]
  GI50: 21.1 µM (inactive)

## Cc1ccccc1S(=O)(=O)OC1NS(=O)(=O)c2ccccc21 (centres undefined)
[1]
  GI50: > 100 µM (inactive)
[3]
  GI50: > 100 µM (inactive)
[4]
  GI50: > 100 µM (inactive)
[59]
  GI50: > 100 µM (inactive)
[5]
  GI50: > 100 µM (inactive)
[6]
  GI50: > 100 µM (inactive)
[8]
  GI50: > 100 µM (inactive)
[9]
  GI50: > 100 µM (inactive)
[10]
  GI50: > 100 µM (inactive)
[11]
  GI50: > 100 µM (inactive)
[12]
  GI50: > 100 µM (inactive)
[13]
  GI50: > 100 µM (inactive)
[14]
  GI50: > 100 µM (inactive)
[15]
  GI50: > 100 µM (inactive)
[16]
  GI50: > 100 µM (inactive)
[17]
  GI50: > 100 µM (inactive)
[18]
  GI50: > 100 µM (inactive)
[19]
  GI50: > 100 µM (inactive)
[20]
  GI50: > 100 µM (inactive)
[21]
  GI50: > 100 µM (inactive)
[22]
  GI50: > 100 µM (inactive)
[23]
  GI50: > 100 µM (inactive)
[24]
  GI50: > 100 µM (inactive)
[25]
  GI50: > 100 µM (inactive)
[26]
  GI50: > 100 µM (inactive)
[27]
  GI50: > 100 µM (inactive)
[28]
  GI50: > 100 µM (inactive)
[29]
  GI50: > 100 µM (inactive)
[30]
  GI50: > 100 µM (inactive)
[32]
  GI50: > 100 µM (inactive)
[33]
  GI50: > 100 µM (inactive)
[34]
  GI50: > 100 µM (inactive)
[35]
  GI50: > 100 µM (inactive)
[36]
  GI50: > 100 µM (inactive)
[37]
  GI50: > 100 µM (inactive)
[38]
  GI50: > 100 µM (inactive)
[39]
  GI50: > 100 µM (inactive)
[40]
  GI50: > 100 µM
[41]
  GI50: > 100 µM (inactive)
[42]
  GI50: > 100 µM (inactive)
[43]
  GI50: > 100 µM (inactive)
[44]
  GI50: > 100 µM (inactive)
[45]
  GI50: > 100 µM (inactive)
[46]
  GI50: > 100 µM (inactive)
[47]
  GI50: > 100 µM (inactive)
[48]
  GI50: > 100 µM (inactive)
[49]
  GI50: > 100 µM (inactive)
[50]
  GI50: > 100 µM (inactive)
[51]
  GI50: > 100 µM (inactive)
[52]
  GI50: > 100 µM (inactive)
[53]
  GI50: > 100 µM (inactive)
[54]
  GI50: > 100 µM (inactive)
[55]
  GI50: > 100 µM (inactive)
[56]
  GI50: > 100 µM (inactive)
[57]
  GI50: > 100 µM (inactive)
[58]
  GI50: > 100 µM (inactive)
